Where a name gives a salt, the structure may show the parent alone. Read-outs that look alike come from different tables or passages of the source. Marks after values point to notes of the source that are not given here.
What was measured:
[1] = system: HepG2 cells; assay: HepG2 cell toxicity (MTT) assay; assay type: cell-based
Procedure: Then 2 μL of DMSO (control) or different concentrations of drugs prepared from 200× DMSO stocks were added to the cultures. […] All experiments were repeated thrice in independent studies where each dose was administered in duplicate (total n=6). HepG2 Cell Toxicity Assay. The 384 well MTT cytotoxicity assay is a modification of the MTT method described by Ferrari et al. optimized for 384-well throughput, with modifications described below.
HepG2 Cell Toxicity assay. The 384 well MTT cytotoxicity assay is a modification of the MTT method described by Ferrari et al.^1 ENREF—26_ENREF—26_ENREF—26 optimized for 384 well throughput. […] 4.25 μL of diluted test compound was then added to the 38.3 μL of media in each well providing a 10 fold final dilution of compound. […] After a 48 hour incubation period, 8 μL of a 1.5 mg/ml solution of MTT diluted in complete MEM media was added to each well. All plates were subsequently incubated in the dark for 1 hour at room temperature. After incubation, the media and drugs in each well was removed by shaking plate over sink, the plates are then left to dry in hood for 15 minutes. […] Plates are put on a 3-D rotator for 15-30 minutes. Absorbance was determined in all wells using a Tecan iControl 1.6 Infinite plate reader.

[2] = system: P. falciparum D6; assay: P. falciparum D6 assay; assay type: cell-based; settings: strain D6
[3] = system: P. falciparum W2; assay: P. falciparum W2 assay; assay type: cell-based
[4] = system: P. falciparum C235; assay: P. falciparum C235 assay; assay type: cell-based; settings: read-out: P. falciparum C235 (EC50)
[5] = system: T. cruzi; assay: T. cruzi growth inhibition; assay type: cell-based, Trypanosoma cruzi; settings: for inhibition at 10 µM: read-out: T. cruzi % inh at 10 μM
[6] = system: L. major amastigote; assay: L. major amastigote assay; assay type: cell-based
[7] = system: T. brucei brucei Lister 427; assay: Trypanosome replication assay; assay type: cell-based, Trypanosoma brucei brucei; settings: 48 h, 48 h, values ±7%
[8] = system: L. major promastigote; assay: L. major promastigote assay; assay type: cell-based
[9] = Homo sapiens, HepG2, 48 h, MTT, 48 hour incubation, read-out: HepG2 IC50
[10] = MTT, 48 hour incubation, read-out: HepG2 IC50
[11] = Plasmodium falciparum, strain W2, read-out: P. falciparum W2 (EC50)
[12] = Plasmodium falciparum, strain C235
[13] = Trypanosoma brucei, concentration giving 50% inhibition of growth of T brucei brucei Lister 427 cells, read-out: Tbb EC50
[14] = Homo sapiens, HepG2, 48 h, read-out: HepG2 IC50, MTT, 48 hour incubation
[15] = Plasmodium falciparum, W2, read-out: P. falciparum W2 (EC50)
[16] = Trypanosoma brucei, read-out: Tbb EC50, concentration giving 50% inhibition of growth of T brucei brucei Lister 427 cells
[17] = strain W2, read-out: P. falciparum W2 (EC50)
[18] = concentration giving 50% inhibition of growth of T brucei brucei Lister 427 cells, read-out: Tbb EC50

| SMILES | IC50 [1, 9] [nM] | EC50 ([2]; Plasmodium falciparum) [nM] | EC50 [3, 11] [nM] | EC50 [4, 12] [nM] | inhibition at 10 µM ([5]; Trypanosoma cruzi) [%] | EC50 ([6]; Leishmania major) [nM] | EC50 [7, 13] [nM] | EC50 ([8]; Leishmania major) [nM] | also measured |
| --- | --- | --- | --- | --- | --- | --- | --- | --- | --- |
| O=S(=O)(c1ccc(-c2ccc3ncnc(Nc4ccc(OCc5cccc(F)c5)c(Cl)c4)c3c2)cc1)N1CCOCC1 [Compound 10a, N-(3-Chloro-4-((3-fluorobenzyl)oxy)phenyl)-6-(4-(morpholinosulfonyl)phenyl)quinazolin-4-amine] | > 15000 | 220 | 690 | 410 | -46 | 1600 | 1390 | 1300 | EC50 ([1]; Homo sapiens, HepG2, read-out: HepG2 cell growth EC50): > 15000 nM; IC50 [1, 10]: > 20000 nM; EC50 ([7]; concentration giving 50% inhibition of growth of T brucei brucei Lister 427 cells, listed as NEU-369, read-out: Tbb EC50): 1300 nM |
| O=S(=O)(c1ccc(-c2ccc3ncnc(Nc4ccc(OCc5cccc(F)c5)c(Cl)c4)c3c2)cc1)N1CCCCC1 [Compound 10l, N-(3-Chloro-4-((3-fluorobenzyl)oxy)phenyl)-6-(4-(piperidin-1-ylsulfonyl)phenyl)quinazolin-4-amine] |  | 180 |  |  | 1 | > 15000 |  | > 15000 | IC50 [1, 14]: > 15000 nM; IC50 ([1]; read-out: HepG2 IC50, MTT, 48 hour incubation): > 20000 nM; EC50 [3, 15]: 330 nM; EC50 ([4]; Plasmodium falciparum): 240 nM; EC50 [7, 16]: 320 nM |
| Fc1cccc(COc2ccc(Nc3ncnc4ccc(-c5ccc(CN6CCOCC6)cc5)cc34)cc2Cl)c1 [Compound 23d] |  |  |  |  |  |  |  |  | IC50 [1, 10]: 12900 nM; EC50 [2]: 64 nM; EC50 [3, 17]: 100 nM; EC50 ([4]; strain C235): 85 nM; EC50 [5]: 600 nM; EC50 [6]: 5900 nM; EC50 [7, 18]: 990 nM; EC50 [8]: 2700 nM |
| COc1ccc(Nc2ncnc3ccc(-c4ccc(S(=O)(=O)N5CCOCC5)cc4)cc23)cc1Cl [Compound 20d, N-(3-Chloro-4-methoxyphenyl)-6-(4-(morpholinosulfonyl)-phenyl)quinazolin-4-amine Hydrochloride] | > 15000 | 810 | 1700 | 1200 | 43 | 4800 | 820 | 830 |  |
| O=S(=O)(c1ccc(-c2ccc3ncnc(Nc4ccc(OCc5cccc(F)c5)cc4)c3c2)cc1)N1CCOCC1 [Compound 20n, N-(4-((3-Fluorobenzyl)oxy)phenyl)-6-(4-(morpholinosulfonyl)phenyl)quinazolin-4-amine] | > 15000 | 440 | 2000 | 850 | 10 | 470 | 650 | 480 |  |
| Fc1cccc(COc2ccc(Nc3ncnc4ccc(-c5cccc(N6CCCCC6)c5)cc34)cc2Cl)c1 [Compound 23g, N-(3-Chloro-4-((3-fluorobenzyl)oxy)phenyl)-6-(3-(piperidin-1-yl)phenyl)quinazolin-4-amine] |  | 640 |  |  | 24 | > 15000 |  | > 15000 | IC50 [1, 14]: > 15000 nM; EC50 [3, 15]: 1800 nM; EC50 ([4]; Plasmodium falciparum): 1100 nM; EC50 [7, 16]: 760 nM |
| Cc1ccc(Nc2ncnc3ccc(-c4ccc(S(=O)(=O)N5CCOCC5)cc4)cc23)cc1 [Compound 20b, 6-(4-(Morpholinosulfonyl)phenyl)-N-(p-tolyl)quinazolin-4-amine Hydrochloride] | > 15000 | 1700 | 6200 | 2800 | 59 | > 15000 | 1150 | 450 | EC50 ([7]; concentration giving 50% inhibition of growth of T brucei brucei Lister 427 cells, listed as NEU-549, Hydrochloride, read-out: Tbb EC50): 1200 nM |
| O=S(=O)(c1ccc(-c2ccc3ncnc(Nc4ccccc4)c3c2)cc1)N1CCOCC1 [Compound 20a, 6-(4-(Morpholinosulfonyl)phenyl)-N-phenylquinazolin-4-amine Hydrochloride] | > 3000 | 4100 | 4100 | 4100 | 13 | 4100 | 1440 | 4100 | EC50 ([7]; concentration giving 50% inhibition of growth of T brucei brucei Lister 427 cells, listed as NEU-548, Hydrochloride, read-out: Tbb EC50): 1400 nM |
| c1ccc(Nc2ncnc3ccc(-c4cccc(N5CCOCC5)c4)cc23)cc1 [Compound 23o, 6-(3-Morpholinophenyl)-N-phenylquinazolin-4-amine] | 7020 | 3100 | 3300 | 4600 |  | > 15000 | 11000 | 9400 | EC50 ([5]; Trypanosoma cruzi): 6720 nM |
| O=S(=O)(c1ccc(-c2ccc3ncnc(Nc4ccc(OCc5cccc(F)c5)c(Cl)c4)c3c2)cc1)N1CCCC1 [Compound 10n] |  |  |  |  |  |  |  |  | IC50 [1, 10]: > 15000 nM; EC50 [2]: 200 nM; EC50 [3, 17]: 800 nM; EC50 ([4]; strain C235): 420 nM; T. cruzi % inh at 10 μM ([5]; 10 μM): (10)* %; EC50 [6]: > 15000 nM; EC50 [7, 18]: 350 nM; EC50 [8]: > 15000 nM |
| O=S(=O)(c1ccc(-c2ccc3ncnc(Nc4ccc(OCc5ccccc5)c(Cl)c4)c3c2)cc1)N1CCOCC1 [Compound 20e, N-(4-(Benzyloxy)-3-chlorophenyl)-6-(4-(morpholinosulfonyl)phenyl)quinazolin-4-amine Hydrochloride] | > 15000 | 250 | 720 | 450 | 9 | > 15000 | 1350 | 470 | EC50 ([7]; concentration giving 50% inhibition of growth of T brucei brucei Lister 427 cells, listed as NEU-551, Hydrochloride, read-out: Tbb EC50): 1400 nM |
| CS(=O)(=O)c1ccc(-c2ccc3ncnc(Nc4ccc(OCc5cccc(F)c5)c(Cl)c4)c3c2)cc1 [Compound 10t, N-(3-Chloro-4-((3-fluorobenzyl)oxy)phenyl)-6-(4-(methylsulfonyl)phenyl)quinazolin-4-amine] | > 15000 | 120 | 360 | 200 |  | 3900 | 900 | 1600 | EC50 ([5]; Trypanosoma cruzi): 650 nM |
| O=S(=O)(c1ccc(-c2ccc3ncnc(Nc4ccc(OCc5cc(F)cc(F)c5F)c(Cl)c4)c3c2)cc1)N1CCOCC1 [Compound 20m, N-(3-Chloro-4-((2,3,5-trifluorobenzyl)oxy)phenyl)-6-(4-(morpholinosulfonyl)phenyl)quinazolin-4-amine Hydrochloride] | > 3000 | 140 | 450 | 240 | 14 | 3000 | 1120 | 3000 | EC50 ([7]; concentration giving 50% inhibition of growth of T brucei brucei Lister 427 cells, listed as NEU-569, Hydrochloride, read-out: Tbb EC50): 1100 nM |

Reference: US20150259331A1, “PROTOZOAN PARASITE GROWTH INHIBITORS” (Northeastern University, priority 2014, published 2015)
